According to patent US7119073B2, “Peptides and their use as inhibitors of hepatitis C virus ns3 protease” (Istituto Di Ricerche Di Biologia Molecolare P. Angeletti SpA, priority 2001, dated 2006):
Like-named read-outs stand apart in the source and are kept apart here. Where a SMILES comes first, the peptide text is derived from it. The star is where a group is joined. NHPhenethyl = c1ccc(CCN*)cc1; Boc = CC(C)(C)OC(=O)*

Molecular target: T1, NS3 protease domain complexed to a modified form of the NS4A peptide (Pep4AK) (Hepatitis C virus genotype 1b, UniProt P26663)
T1 construct: NS3 protease domain (residues 1027–1206 of the HCV polyprotein)
T1 sequence (P26663 1027-1206, other chains not shown): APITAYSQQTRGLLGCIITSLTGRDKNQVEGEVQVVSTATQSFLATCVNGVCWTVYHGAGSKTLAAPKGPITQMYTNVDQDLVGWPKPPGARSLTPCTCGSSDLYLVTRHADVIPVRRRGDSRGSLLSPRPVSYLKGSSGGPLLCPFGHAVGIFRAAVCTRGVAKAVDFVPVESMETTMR
Experiment: HCV NS3 protease domain/NS4A cofactor peptide assay (Assay B)
Assay type: biochemical

[1] = Table 1, NS3 protease domain/Pep4AK, 4AB peptide substrate, read-out: Assay B
[2] = Table 2, NS3 protease domain/Pep4AK, read-out: Assay B
[3] = NS3 protease domain/NS4A cofactor peptide assay, read-out: Assay B (IC50 class)

Row | SMILES | IC50 [1] [µM] | further results
1 | CC(C)COC(=O)NC(CCC(=O)O)C(=O)NC(CC(C)C)C(=O)NC(CS)C(=O)NCC1(c2ccccc2)CCC1 (stereo not shown) [Compound 110] | < 100 | 
2 | COc1ccc(CCNC(=O)C(CS)NC(=O)C(CC(C)C)NC(=O)C(CCC(=O)O)NC(=O)OCC(C)C)cc1Br (stereo not shown) [Compound 176] | < 100 | 
3 | CC(C)COC(=O)NC(CCC(=O)O)C(=O)NC(CC(C)C)C(=O)NC(CS)C(=O)NCCc1cccnc1 (stereo not shown) [Compound 193] | < 100 | 
4 | CC(C)C[C@H](NC(=O)[C@H](CCC(=O)O)NC(=O)c1cccc(Br)c1)C(=O)N[C@@H](CS)C(=O)NCCc1ccccc1Cl [Compound 206] |  | IC50 [2]: < 100 µM
5 | CC(C)COC(=O)NC(CCC(=O)O)C(=O)NC(CC(C)C)C(=O)NC(CS)C(=O)NCCc1ccc2ccccc2c1 (stereo not shown) [Compound 192] | < 100 | 
6 | CC(C)COC(=O)NC(CCC(=O)O)C(=O)NC(CC(C)C)C(=O)NC(CC(F)F)C(=O)NCCc1c(F)cc(C(=O)O)cc1F (stereo not shown) [Compound 187] | < 1 | 
7 | CC(C)COC(=O)N[C@@H](CCC(=O)O)C(=O)N[C@@H](CC(C)C)C(=O)N[C@@H](CS)C(=O)NCCc1cccc(/C=C/C(=O)O)c1 [Compound 134] | < 10 | 
8 | CCOC(=O)C=Cc1cccc(CCNC(=O)C(CC(F)F)NC(=O)C(CC(C)C)NC(=O)c2ccccc2-c2ccccc2C(=O)O)c1 (stereo not shown) [Compound 719] |  | IC50 [3]: < 100 µM
9 | CC(C)C[C@H](NC(=O)[C@H](CCC(=O)O)NC(=O)C1CCC(C(=O)O)CC1)C(=O)N[C@@H](CS)C(=O)NCCc1ccccc1Cl (mixture of isomers) [Compound 233] |  | IC50 [2]: < 100 µM
10 | CC(C)COC(=O)NC(CCC(=O)O)C(=O)NC(CC(C)C)C(=O)NC(CS)C(=O)NCCc1ccc(C(F)(F)F)cc1 (stereo not shown) [Compound 149] | < 100 | 
11 | CCOC(=O)CNc1cccc(CCNC(=O)C(CC(F)F)NC(=O)C(CC(C)C)NC(=O)c2ccccc2-c2ccccc2C(=O)O)c1 (stereo not shown) [Compound 721] |  | IC50 [3]: < 100 µM
12 | CC(C)CC(NC(=O)c1ccccc1-c1ccccc1C(=O)O)C(=O)NC(CC(F)F)C(=O)NCCc1ccc(C(=O)O)cc1Cl (stereo not shown) [Compound 715] |  | IC50 [3]: < 100 µM
13 | C=CCCC(=O)N[C@@H](CCC(=O)O)C(=O)N[C@@H](CC(C)C)C(=O)N[C@@H](CS)C(=O)NCCc1ccccc1Cl [Compound 228] |  | IC50 [2]: < 100 µM
14 | C=CCNC(=O)N[C@@H](CCC(=O)O)C(=O)N[C@@H](CC(C)C)C(=O)N[C@@H](CS)C(=O)NCCc1ccccc1Cl [Compound 246] |  | IC50 [2]: < 100 µM
15 | CC(C)C[C@H](NC(=O)C1(Cc2ccc(C(=O)O)s2)CCc2ccccc2N1)C(=O)N[C@@H](CC(F)F)C(=O)NCCc1ccc(C(=O)O)cc1Cl (single isomer, unassigned) [Compound 711a] |  | IC50 [3]: < 100 µM
16 | CC(C)COC(=O)NC(CCC(=O)O)C(=O)NC(CC(C)C)C(=O)NC(CS)C(=O)NCCc1cccc(-c2ccccc2)c1 (stereo not shown) [Compound 136] | < 100 | 
17 | CC(C)COC(=O)NC(CCC(=O)O)C(=O)NC(CC(C)C)C(=O)NC(CS)C(=O)NCCc1ccc(S(=O)(=O)NC(=O)C(C)C)cc1 (stereo not shown) [Compound 161] | < 10 | 
18 | CC(C)CC(NC(=O)C(CCC(=O)O)NC(=O)OCc1ccccc1)C(=O)NC(CS)C(=O)NCCc1ccccc1Cl (stereo not shown) [Compound 116] | < 100 | 
19 | CC(C)C[C@H](NC(=O)C1(Cc2ccsc2C(=O)O)CCc2ccccc2N1)C(=O)N[C@@H](CC(F)F)C(=O)NCCc1cccc(/C=C/C(=O)O)c1 (single isomer, unassigned) [Compound 714] |  | IC50 [3]: < 100 µM
20 | Cc1ccc(CCNC(=O)C(CS)NC(=O)C(CC(C)C)NC(=O)C(CCC(=O)O)NC(=O)OCC(C)C)cc1 (stereo not shown) [Compound 140] | < 100 | 
21 | COc1ccc(CCNC(=O)[C@H](CS)NC(=O)[C@H](CC(C)C)NC(=O)[C@H](CCC(=O)O)NC(=O)C2C[C@H]2c2ccccc2)cc1 (stereo partly shown) [Compound 220] |  | IC50 [2]: < 100 µM
22 | CC(C)CC(NC(=O)c1ccccc1-c1ccccc1C(=O)O)C(=O)NC(CS)C(=O)NCCc1ccccc1Cl (stereo not shown) [Compound 716] |  | IC50 [3]: < 100 µM

Row | SMILES | IC50 [1] [µM] | further results
23 | CC(C)C[C@H](NC(=O)[C@H](CCC(=O)O)NC(=O)C1CCCCC1)C(=O)N[C@@H](CS)C(=O)NCCc1ccccc1Cl [Compound 230] |  | IC50 [2]: < 100 µM
24 | COc1ccc(CCNC(=O)[C@H](CS)NC(=O)[C@H](CC(C)C)NC(=O)[C@H](CCC(=O)O)NS(C)(=O)=O)cc1 [Compound 254] |  | IC50 [2]: < 100 µM
25 | COc1ccc(CCNC(=O)C(CS)NC(=O)C(CC(C)C)NC(=O)C(CCC(=O)O)NC(=O)OC(C)(C)C)cc1 (stereo not shown) [Compound 142] | < 100 | 
26 | CC(=O)NS(=O)(=O)c1ccc(CCNC(=O)C(CS)NC(=O)C(CC(C)C)NC(=O)C(CCC(=O)O)NC(=O)OCC(C)C)cc1 (stereo not shown) [Compound 160] | < 10 | 
27 | CC(C)C[C@H](NC(=O)[C@H](CCC(=O)O)NC(=O)/C=C/c1ccc([N+](=O)[O-])cc1)C(=O)N[C@@H](CS)C(=O)NCCc1ccccc1Cl [Compound 218] |  | IC50 [2]: < 100 µM
28 | COc1ccc(CCNC(=O)[C@H](CS)NC(=O)[C@H](CC(C)C)NC(=O)[C@H](CCC(=O)O)NC(=O)c2ccc3c(c2)OCO3)cc1 [Compound 204] |  | IC50 [2]: < 100 µM
29 | CC(C)CC(NC(=O)C(CCC(=O)O)NC(=O)OC(C)(C)C)C(=O)NC(CC(F)F)C(=O)NCCc1ccccc1 (stereo not shown) [Compound 105] | < 100 | 
30 | CC(C)COC(=O)NC(CCC(=O)O)C(=O)NC(CC(C)C)C(=O)NC(CS)C(=O)NCCc1cccc(Oc2ccccc2)c1 (stereo not shown) [Compound 137] | < 100 | 
31 | Cc1ccccc1CCNC(=O)C(CS)NC(=O)C(CC(C)C)NC(=O)C(CCC(=O)O)NC(=O)OCC(C)C (stereo not shown) [Compound 118] | < 100 | 
32 | CC(C)COC(=O)NC(C(=O)NC(CC(C)C)C(=O)NC(CS)C(=O)NCCc1ccc(C(=O)O)cc1)C(C)C (stereo not shown) [Compound 152] | < 10 | 
33 | COc1cc(CCNC(=O)C(CS)NC(=O)C(CC(C)C)NC(=O)C(CCC(=O)O)NC(=O)OCC(C)C)ccc1O (stereo not shown) [Compound 175] | < 100 | 
34 | CC(C)COC(=O)NC(CCC(=O)O)C(=O)NC(CC(C)C)C(=O)NC(CS)C(=O)NCCc1ccc(Oc2ccccc2)cc1 (stereo not shown) [Compound 145] | < 100 | 
35 | CC(C)COC(=O)NC(CCC(=O)O)C(=O)NC(CC(C)C)C(=O)NC(CS)C(=O)NCCc1ccccc1C(F)(F)F (stereo not shown) [Compound 121] | < 100 | 
36 | CC(C)COC(=O)NC(CCC(=O)O)C(=O)NC(CC(C)C)C(=O)NC(CS)C(=O)NCCc1ccc(Cl)c(Cl)c1 (stereo not shown) [Compound 172] | < 100 | 
37 | CC(C)CC(NC(=O)C(CCC(=O)O)NC(=O)OC(C)(C)C)C(=O)NC(CS)C(=O)NCCc1ccccc1 (stereo not drawn) [Compound 103] (Boc-Glu-Leu-Cys-NHPhenethyl; configuration not given here) | < 100 | 
38 | CC(C)COC(=O)NC(CCC(=O)O)C(=O)NC(CC(C)C)C(=O)NC(CS)C(=O)NCCc1cccc(O)c1 (stereo not shown) [Compound 129] | < 100 | 
39 | CC(C)COC(=O)NC(CCC(=O)O)C(=O)NC(CC(C)C)C(=O)NC(CS)C(=O)NCCc1ccccc1F (stereo not shown) [Compound 112] | < 100 | 
40 | CC(C)C[C@H](NC(=O)[C@H](CCC(=O)O)NC(=O)Cc1cccc(CC(=O)O)c1)C(=O)N[C@@H](CS)C(=O)NCCc1ccc(Cl)cc1Cl [Compound 226] |  | IC50 [2]: < 100 µM
41 | CC(C)COC(=O)N[C@@H](CCC(=O)O)C(=O)N[C@@H](CC(C)C)C(=O)N[C@@H](CS)C(=O)NCCc1cn(CC(=O)O)c2ccccc12 [Compound 188] | < 10 | 
42 | CC(C)COC(=O)NC(CCC(=O)O)C(=O)NC(CC(C)C)C(=O)NC(CS)C(=O)NCCc1ccc(S(=O)(=O)NC(=O)c2ccccc2)cc1 (stereo not shown) [Compound 162] | < 10 | 
43 | COc1ccc(CCNC(=O)[C@H](CS)NC(=O)[C@H](CC(C)C)NC(=O)[C@H](CCC(=O)O)NC(=O)C2CCCCC2)cc1 [Compound 231] |  | IC50 [2]: < 100 µM
